Experimental data published in patent US20190086391A1, “METHOD AND SYSTEM FOR CONTINUOUS BIOSENSING” (Yissum Research Development Company of the Hebrew …, priority 2016, published 2019).

Assays:
Assay type in all cases: cell-based, human
[1] = test system: HepG2/C3A spheroids; assay: Offline glutamine uptake in bioreactor perfusate; settings: 50 μM
Procedure: Glutamine concentration was determined using glutamine and glutamate determination kit (Sigma-Aldrich). Bioreactors containing HepG2/C3A spheroids were set up as described in the main text and perfused at 2 μl/min. Perfusate samples were collected for 60 minutes for a total of 120 μl per sample. Glutamine was quantified according to manufacturer directions.

[2] = test system: HepG2/C3A cells; assay: Real-time amperometric glucose and lactate measurements in bioreactor outflow; settings: for total glucose uptake rate: 50 μM treated cells
Procedure: Amperometric glucose and lactate sensors were purchased from BioSensor Technology (Berlin, Germany) and embedded in a CNC-fabricated PMMA flow-chamber with an inner volume of 26 μl. The sensors are based on the enzymatic reactions of glucose oxidase, with a linear range of 0.5 mM to 30 mM, and lactate oxidase, with a linear range of 0.5 mM to 20 mM. Both sensors produce H2O2 in amounts proportional to the measured metabolite, which is detected with platinum electrodes under polarized condition. The microfluidic controller (13) was programmed to open a microfluidic valve every hour, allowing a 40 μl medium sample to flow through the switchboard and into the sensors unit. Amperometric measurement lasted 200 seconds and was followed by automated perfusion of PBS washing solution, CAL 4+M calibration buffer (Eschweiler, Germany), and 4 seconds of air bubble acting as a diffusion barrier between samples. Reading was carried out on EmStat3 OEM embedded potentiostat (PalmSens, Netherlands) connected to the central computer.
(§1) Glucose uptake, oxygen uptake and lactate production rates were measured by calculating the change in metabolite concentration between the bioreactor in- and outflow, as function of perfusion rate and cell number as described above. Metabolic rates were calculated assuming negligible contribution to oxygen uptake by fatty acid oxidation and enzymatic activity. Low level of lipids in the culture medium ensured that fatty acid uptake was 50-fold lower than glucose while glutamine contribution to the Krebs cycle was minor (results).

[3] = test system: HepG2/C3A cells; assay: Flux balance analysis of metabolic pathways and ATP production; settings: 50 μM; for ATP production, % of untreated cells: calculated from flux balance; for Glutaminolysis (calculated metabolic flux) / Glycolysis (calculated metabolic flux) / Lipogenesis (calculated metabolic flux) / Respiration (calculated metabolic flux): troglitazone 6 hours, rotenone 3 hours
Procedure: as §1
Based on these assumptions, oxidative phosphorylation flux was calculated by dividing oxygen uptake rate by six. 32 ATP molecules generated by complete oxidation of 1 molecule of glucose were estimated. Glycolysis flux was calculated by dividing lactate production rate by two, with maximal rate defined by glucose uptake rate minus the oxidative phosphorylation flux. ATP production in glycolysis was estimated to be 2 molecules per molecule of glucose. It was assumed that any glucose left over was directed toward lipogenesis, as the contribution of pentose phosphate pathway in nonproliferating cells is minor (31). Finally, it was assumed that excess lactate was produced by glutaminolysis, and confirmed the assumption using offline measurement of glutamine uptake (FIGS. 10A and 10B). ATP production in glutaminolysis was estimated to be 3 molecules per molecule of lactate generated.

[4] = test system: HepG2/C3A cells; assay: Seahorse glutamine oxidation assay; settings: 50 μM, static culture
Procedure: HepG2/C3A cells were plated in gelatin-coated XFp cell culture miniplates and cultured for 24 hours. Subsequently, cultures were treated with medium containing 50 μM troglitazone for 6 hours, 50 μM rotenone for 3 hours, or vehicle control prior to initiation of assay. Glutamine oxidation assay was conducted per manufacturer instructions. Briefly, cells were incubated in unbuffered XF Base Medium supplemented with 2 mM Glutamine, 1 mM sodium pyruvate, and 10 mM glucose (pH 7.4) for 1 hour at 37° C. in a non-CO2 incubator. Glutamine oxidation was profiled by successive injections of 3 μM BPTES, an allosteric inhibitor of glutaminase (GLS1), and a mixture of 4 μM etomoxir, a carnitine palmitoyl-transferase 1A (CPT1A) inhibitor and 2 μM UK5099 a mitochondrial pyruvate carrier inhibitor, blocking fatty acid oxidation and […], respectively. The decrease in baseline OCR due to BPTES treatment was defined as the rate of glutaminolysis. Data are presented normalized to 10^6 cells as determined by Hoechst DNA content assay.

[5] = test system: HepG2/C3A cells; assay: JC-1 mitochondrial membrane potential staining; settings: 50 μM
Procedure: JC-1 cell permeable dye was purchased from Life Technologies (New York, N.Y.). HepG2/C3A cells were incubated with 50 μM of troglitazone or rotenone for varying durations. To evaluate mitochondrial membrane potential at each time point, cells were incubated with 5 μM JC-1 dye for 30 min, washed with PBS and imaged by confocal microscopy on a LSM700 (Zeiss, Germany). […] Consequently, mitochondrial depolarization is quantified by dividing red over green fluorescence intensity.

[6] = 50 μM, after 6 hours of exposure
[7] = 50 μM, within the first 2 hours

C=C(C)[C@H]1Cc2c(ccc3c2O[C@@H]2COc4cc(OC)c(OC)cc4[C@@H]2C3=O)O1 [rotenone]
glutamine uptake (outlet-inlet), in words [1]: increase in glutamine uptake | increase in glutamine consumption (offline measurement) [1]: 30±4 folds | exposure time after which the metabolic shift from oxidative phosphorylation to glycolysis occurred ([2]; 50 μM): 3 h | total glucose uptake rate [2]: 1.0 nmol/min/10^6 | lactate over glucose ratio ([2]; 50 μM, 6 hours after exposure): 6.1 | additional drop in glucose uptake [2, 6]: 65% | change in lactate production [2, 6]: no change | lactate over glucose ratio ([2]; 50 μM, within 3 hours after exposure): 2.6 | drop in glucose uptake [2, 7]: 59% | drop in lactate production [2, 7]: 35% | lactate over glucose ratio ([2]; gradual switch to compensatory mechanisms): above 2 | decrease in oxidative phosphorylation flux ([3]; after 3 hours of exposure): 90% | increase in glycolysis (flux) ([3]; after 3 hours of exposure): 34% | ATP production, % of untreated cells [3]: less than 36% | Glutaminolysis (calculated metabolic flux) [3]: 0.56 nmol/min/10^6 cells | Glycolysis (calculated metabolic flux) [3]: 0.97 nmol/min/10^6 cells | Lipogenesis (calculated metabolic flux) [3]: 0 nmol/min/10^6 cells | Respiration (calculated metabolic flux) [3]: 0.03 nmol/min/10^6 cells | increase in glutamine oxidation rate (glutaminolysis) [4]: 382±115% | increase in glutaminolysis [4]: 4±1 folds | increase in mitochondrial membrane potential (MMP) ([5]; within 3 hours of exposure): 40±6% | effect on mitochondrial membrane potential (MMP), in words ([5]; rotenone after 3 hours, troglitazone along 6 hours): significant increase

Cc1c(C)c2c(c(C)c1O)CCC(C)(COc1ccc(CC3SC(=O)NC3=O)cc1)O2 (centres unmarked) [troglitazone]
increase in glutamine consumption (offline measurement) [1]: 5±2 folds | total glucose uptake rate [2]: 2.5 nmol/min/10^6 | lactate over glucose ratio ([2]; 50 μM, 6 hours after exposure): 1.8 | increase in lactate production ([2]; 50 μM, within 4 to 5 hours): 51% | decrease in oxidative phosphorylation flux ([3]; after 6 hours of exposure): 23% | increase in glycolysis (flux) ([3]; after 6 hours of exposure): 51% | ATP production, % of untreated cells [3]: 97% | Glutaminolysis (calculated metabolic flux) [3]: 0.02 nmol/min/10^6 cells | Glycolysis (calculated metabolic flux) [3]: 2.25 nmol/min/10^6 cells | Lipogenesis (calculated metabolic flux) [3]: 0 nmol/min/10^6 cells | Respiration (calculated metabolic flux) [3]: 0.25 nmol/min/10^6 cells | increase in glutamine oxidation rate (glutaminolysis) [4]: 26±30% | increase in mitochondrial membrane potential (MMP) ([5]; over 6 hours of exposure): 33±7%
